# Read-outs that look alike come from different tables or passages of the source.
# Columns and labels:
# MCF-10A cells [1] = assay: MTT cell viability assay; type: cell-based; conditions: Homo sapiens, mean ± SD, read-out: IC50 cell viability inhibition
# Procedure: (§1) Cells were cultured in 96-well plates at 2 × 10^5 cells/mL (100 µL per well) and treated the following day with either BA or UA (0.5–50 µM), for 24 h, 48 h and 72 h. Vehicle solvent control cells received DMSO (0.25% v/v). Cell viability was estimated by the 3-(4,5-dimethylthiazol-2-yl)-2,5-diphenyltetrazolium bromide (MTT) assay as previously described by. After treatment incubation, 20 μL of MTT stock solution was added to each well (final concentration 0.5 mg/mL), and plates were incubated at 37 °C, for 4 h. Then, the medium was removed, and the formed formazan crystals were dissolved using a DMSO/ethanol (1:1) solution. Finally, absorbance of the formed product was measured at 570 nm using a microplate reader (MultiSkan FC, Thermo Fisher Scientific, Rochester, NY, USA). The IC50, defined as the concentration necessary to cause 50% inhibition of cell viability, was calculated using GraphPad Prism 5.0 (GraphPad Prism Software Inc., San Diego, CA, USA), by plotting the percentage of cell viability as a function of sample concentration logarithm. Three independent experiments were performed for each treatment.
# MDA-MB-231 cells [2] = assay: MTT cell viability assay; type: cell-based; conditions: Homo sapiens, mean ± SD, read-out: IC50 cell viability inhibition
# Procedure: as §1
# MCF-10A cells [3] = assay: 1H NMR analysis of organic cell extracts (lipids); type: cell-based, human; conditions: for levels of triglycerides: vs control cells
# Procedure: (§2) MDA-MB-231 and MCF-10A cells were seeded in 10-cm-diameter Petri dishes at a density of 6 × 10^5 cells/mL (10 mL per dish) and cultured for 24 h at 37 °C. Cells were then incubated for 48 h with BA (5 and 15 µM) or UA (10 and 20 µM). Vehicle solvent control cells received DMSO (0.10% v/v). Samples were collected immediately after 48 h incubation or, to assess cellular recovery, medium was replaced with fresh growth medium (without TAs), and cells were incubated for additional 24 h before collection (48 + 24 h samples). Four independent assays were performed.
# (§3) After incubation, culture medium was collected and centrifuged (1000× g, 5 min) and the supernatant stored at −80 °C until analysis. Culture medium without cells was placed under the same conditions and collected. Cell extraction was performed as described by Carrola et al.. Briefly, cells were washed four times with PBS and extracted with a mixture of methanol:chloroform:water (1:1:0.7). The resulting polar and organic phases were collected and then dried under vacuum or under a stream of nitrogen gas, respectively. All samples were stored at −80 °C and, at the time of analysis, dried polar extracts were reconstituted in 600 µL of deuterated phosphate buffer (100 mM, pH 7.4) containing 0.1 mM TSP-d4, while organic extracts were reconstituted in deuterated chloroform containing 0.03% TMS. Regarding medium samples, 540 μL were mixed with 60 μL of D2O containing 0.25% TSP-d4. Prior to analysis, 550 μL of each sample were transferred to 5 mm NMR tubes.
# (§4) ^1H NMR spectra of all samples were acquired on a Bruker Avance III HD 500 NMR spectrometer (University of Aveiro, Portuguese NMR Network) operating at 500.13 MHz for ^1H observation equipped with a 5 mm TXI probe. Standard 1D spectra (Bruker pulse programs ‘noesypr1d’, with water suppression, for medium samples and aqueous extracts, and ‘zg’ for organic extracts) were recorded with a 7002.8 Hz spectral width, 32 k data points, a 2 s relaxation delay and 512 scans. Spectral processing comprised exponential multiplication with 0.3 Hz line broadening, zero filling to 64 k data points, manual phasing, baseline correction, and chemical shift calibration to the TSP or TMS signal at 0 ppm. 2D ^1H-^1H total correlation (TOCSY) spectra, ^1H-^13C heteronuclear single quantum correlation (HSQC) spectra and J-resolved spectra were also registered for selected samples to assist spectral assignment. Metabolites were identified with the support of 2D spectra and the spectral reference databases BBIOREFCODE-2-0-0 (Bruker Biospin, Rheinstetten, Germany) and HMDB [28]. Selected signals were then integrated using the AmixViewer software […] (version 3.9.14, Bruker BioSpin, Rheinstetten, Germany) and normalized by the total spectral area. The magnitude of each metabolite change was assessed through the percentage of variation (and its respective error) in exposed samples relatively to controls, and through the effect size (ES) adjusted for small sample numbers (and respective standard error). Metabolite variations with absolute ES greater than 0.8 were expressed in a heatmap, colored as a function of the percentage of variation, employing the R statistical software.
# MDA-MB-231 cells [4] = assay: 1H NMR analysis of organic cell extracts (lipids); type: cell-based, human; conditions: 48 h; for levels of neutral lipids (cholesteryl esters and triglycerides): vs control; for plasmalogen lipids: high exposure concentration
# Procedure: as §2, §3, §4
"IC50 (MDA-MB-231 cells [2]; MDA-MB-231, 24 h)","IC50 (MDA-MB-231 cells [2]; MDA-MB-231, 48 h)","IC50 (MDA-MB-231 cells [2]; MDA-MB-231, 72 h)",Structure (SMILES),IC50 (MCF-10A cells [1]; 24 h),IC50 (MCF-10A cells [1]; 48 h),IC50 (MCF-10A cells [1]; 72 h),levels of glycerophospholipids (including plasmalogen) (MCF-10A cells [3]; BA),relative amount of free cholesterol (MCF-10A cells [3]; BA),levels of triglycerides (MCF-10A cells [3]),levels of neutral lipids (cholesteryl esters and triglycerides) (MDA-MB-231 cells [4]),total glycerophospholipids and free cholesterol (MDA-MB-231 cells [4]; BA),plasmalogen lipids (MDA-MB-231 cells [4])
31.3 ± 5.94 µM,13.2 ± 2.3 µM,8.39 ± 0.98 µM,"C=C(C)[C@@H]1CC[C@]2(C(=O)O)CC[C@]3(C)[C@H](CC[C@@H]4[C@@]5(C)CC[C@H](O)C(C)(C)[C@@H]5CC[C@]43C)[C@@H]12 [BA, betulinic acid]",22.4 ± 6.49 µM,11 ± 1.83 µM,2.38 ± 1.36 µM,decreased levels,increased,increased levels,decreased significantly,increased,decreased
24.5 ± 4.61 µM,17.2 ± 0.86 µM,17.7 ± 2.81 µM,"C[C@H]1[C@H](C)CC[C@]2(C(=O)O)CC[C@]3(C)C(=CC[C@@H]4[C@@]5(C)CC[C@H](O)C(C)(C)[C@@H]5CC[C@]43C)[C@H]12 [UA, ursolic acid]",37.9 ± 8.93 µM,18.7 ± 3.27 µM,21.5 ± 4.55 µM,–,–,increases,decreased levels,–,decreased levels

# Source: publication PMC7464159, “Triple Negative Breast Cancer and Breast Epithelial Cells Differentially Reprogram Glucose and Lipid Metabolism upon Treatment with Triterpenic Acids” (Biomolecules, 2020)
